{"source": "ChEMBL document CHEMBL1144679", "about": "“Synthesis and antiproliferative activity of benzyl and phenethyl analogs of makaluvamines” (Bioorg Med Chem, 2008)", "key": {"[1]": {"test_system": "SW-620", "experiment": "Antitumor activity against human SW620 cells", "type": "functional"}, "[2]": {"test_system": "IGROV-1", "experiment": "Antitumor activity against human IGROV1 cells", "type": "functional"}, "[3]": {"test_system": "MCF7", "experiment": "Cytotoxicity against human MCF7 cells by XTT assay", "type": "functional, cell-based"}, "[4]": {"test_system": "MOLT-4", "experiment": "Antitumor activity against human MOLT4 cells", "type": "functional"}, "[5]": {"test_system": "HCT-116", "experiment": "Antitumor activity against human HCT116 cells", "type": "functional"}, "[6]": {"test_system": "TK-10", "experiment": "Antitumor activity against human TK10 cells", "type": "functional"}, "[7]": {"test_system": "EKVX", "experiment": "Antitumor activity against human EKVX cells", "type": "functional"}, "[8]": {"test_system": "RXF 393", "experiment": "Antitumor activity against human […] cells", "type": "functional"}, "[9]": {"test_system": "SK-MEL-2", "experiment": "Antitumor activity against human SK-MEL2 cells", "type": "functional"}, "[10]": {"test_system": "U-251", "experiment": "Antitumor activity against human U251 cells", "type": "functional"}, "[11]": {"test_system": "MDA-MB-435", "experiment": "Antitumor activity against human MDA-MB-435 cells", "type": "functional"}, "[12]": {"test_system": "NCI/ADR-RES", "experiment": "Antitumor activity against human NCI/ADR-RES cells", "type": "functional"}, "[13]": {"experiment": "Antitumor activity against human OVACR8 cells", "type": "functional"}, "[14]": {"test_system": "SF-268", "experiment": "Antitumor activity against human SF268 cells", "type": "functional"}, "[15]": {"test_system": "NCI-H322M", "experiment": "Antitumor activity against human NCI-H322M cells", "type": "functional"}, "[16]": {"test_system": "M14", "experiment": "Antitumor activity against human M14 cells", "type": "functional"}, "[17]": {"test_system": "Hs-578T", "experiment": "Antitumor activity against human HS578T cells", "type": "functional"}, "[18]": {"test_system": "Malme-3M", "experiment": "Antitumor activity against human MALME3M cells", "type": "functional"}, "[19]": {"test_system": "SNB-75", "experiment": "Antitumor activity against human SNB75 cells", "type": "functional"}, "[20]": {"test_system": "SK-MEL-28", "experiment": "Antitumor activity against human SK-MEL28 cells", "type": "functional"}, "[21]": {"test_system": "SK-OV-3", "experiment": "Antitumor activity against human SK-OV3 cells", "type": "functional"}, "[22]": {"test_system": "NCI-H23", "experiment": "Antitumor activity against human NCI-H23 cells", "type": "functional"}, "[23]": {"test_system": "BT-549", "experiment": "Antitumor activity against human BT549 cells", "type": "functional"}, "[24]": {"test_system": "MCF7", "experiment": "Antitumor activity against human MCF7 cells", "type": "functional"}, "[25]": {"test_system": "786-0", "experiment": "Antitumor activity against human 786-0 cells", "type": "functional"}, "[26]": {"test_system": "SN12C", "experiment": "Antitumor activity against human SN12C cells", "type": "functional"}, "[27]": {"test_system": "KM12", "experiment": "Antitumor activity against human KM12 cells", "type": "functional"}, "[28]": {"test_system": "HOP-62", "experiment": "Antitumor activity against human HOP62 cells", "type": "functional"}, "[29]": {"test_system": "T47D", "experiment": "Antitumor activity against human T47D cells", "type": "functional"}, "[30]": {"experiment": "Antitumor activity against human HL60(TB) cells", "type": "functional, HL-60(TB)"}, "[31]": {"test_system": "HT-29", "experiment": "Antitumor activity against human HT29 cells", "type": "functional"}, "[32]": {"details": "read-out: Log LC50 (the source's name) (converted)"}}, "data": [{"compound": "O=C1C(NCc2ccc(F)cc2)=CC2=NCCc3c[nH]c1c32", "values": [{"measurement": "GI50", "setting": "[1]", "value": 1.82, "unit": "µM"}, {"measurement": "CC50", "setting": "[1]; [32]", "value": 24.5, "unit": "µM"}, {"measurement": "GI50", "setting": "[2]", "value": 1.41, "unit": "µM"}, {"measurement": "CC50", "setting": "[2]; [32]", "value": 10, "unit": "µM"}, {"measurement": "IC50", "setting": "[3]", "value": 2.8, "unit": "µM"}, {"measurement": "GI50", "setting": "[4]", "value": 0.794, "unit": "µM"}, {"measurement": "GI50", "setting": "[5]", "value": 0.708, "unit": "µM"}, {"measurement": "CC50", "setting": "[5]; [32]", "value": 57.5, "unit": "µM"}, {"measurement": "GI50", "setting": "[6]", "value": 3.16, "unit": "µM"}, {"measurement": "CC50", "setting": "[6]; [32]", "value": 45.7, "unit": "µM"}, {"measurement": "GI50", "setting": "[7]", "value": 0.457, "unit": "µM"}, {"measurement": "CC50", "setting": "[7]; [32]", "value": 5.89, "unit": "µM"}, {"measurement": "GI50", "setting": "[8]", "value": "< 0.01", "unit": "µM"}, {"measurement": "CC50", "setting": "[8]; [32]", "value": 5.13, "unit": "µM"}, {"measurement": "GI50", "setting": "[9]", "value": 4.57, "unit": "µM"}, {"measurement": "LC50", "setting": "[9]", "value": 49, "unit": "µM"}, {"measurement": "GI50", "setting": "[10]", "value": 2, "unit": "µM"}, {"measurement": "LC50", "setting": "[10]", "value": 9.77, "unit": "µM"}, {"measurement": "GI50", "setting": "[11]", "value": 1.74, "unit": "µM"}, {"measurement": "LC50", "setting": "[11]", "value": 8.13, "unit": "µM"}, {"measurement": "GI50", "setting": "[12]", "value": 3.09, "unit": "µM"}, {"measurement": "LC50", "setting": "[12]", "value": "> 100", "unit": "µM"}, {"measurement": "GI50", "setting": "[13]", "value": 2, "unit": "µM"}, {"measurement": "LC50", "setting": "[13]", "value": 18.2, "unit": "µM"}, {"measurement": "GI50", "setting": "[14]", "value": 1.66, "unit": "µM"}, {"measurement": "CC50", "setting": "[14]; [32]", "value": 43.7, "unit": "µM"}, {"measurement": "GI50", "setting": "[15]", "value": 1.17, "unit": "µM"}, {"measurement": "CC50", "setting": "[15]; [32]", "value": 9.55, "unit": "µM"}, {"measurement": "GI50", "setting": "[16]", "value": 1.45, "unit": "µM"}, {"measurement": "LC50", "setting": "[16]", "value": 6.17, "unit": "µM"}, {"measurement": "GI50", "setting": "[17]", "value": 43.7, "unit": "µM"}, {"measurement": "CC50", "setting": "[17]; [32]", "value": "> 100", "unit": "µM"}, {"measurement": "GI50", "setting": "[18]", "value": 0.209, "unit": "µM"}, {"measurement": "CC50", "setting": "[18]; [32]", "value": 2.24, "unit": "µM"}, {"measurement": "GI50", "setting": "[19]", "value": 5.25, "unit": "µM"}, {"measurement": "CC50", "setting": "[19]; [32]", "value": 61.7, "unit": "µM"}, {"measurement": "GI50", "setting": "[20]", "value": 5.75, "unit": "µM"}, {"measurement": "CC50", "setting": "[20]; [32]", "value": 44.7, "unit": "µM"}, {"measurement": "GI50", "setting": "[21]", "value": 3.16, "unit": "µM"}, {"measurement": "CC50", "setting": "[21]; [32]", "value": 38.9, "unit": "µM"}, {"measurement": "GI50", "setting": "[22]", "value": 0.525, "unit": "µM"}, {"measurement": "CC50", "setting": "[22]; [32]", "value": "> 100", "unit": "µM"}, {"measurement": "GI50", "setting": "[23]", "value": 3.16, "unit": "µM"}, {"measurement": "CC50", "setting": "[23]; [32]", "value": 26.9, "unit": "µM"}, {"measurement": "GI50", "setting": "[24]", "value": 0.158, "unit": "µM"}, {"measurement": "LC50", "setting": "[24]", "value": 0.977, "unit": "µM"}, {"measurement": "GI50", "setting": "[25]", "value": 3.47, "unit": "µM"}, {"measurement": "CC50", "setting": "[25]; [32]", "value": 53.7, "unit": "µM"}, {"measurement": "GI50", "setting": "[26]", "value": 1.95, "unit": "µM"}, {"measurement": "CC50", "setting": "[26]; [32]", "value": 8.91, "unit": "µM"}, {"measurement": "GI50", "setting": "[27]", "value": 2.04, "unit": "µM"}, {"measurement": "CC50", "setting": "[27]; [32]", "value": "> 100", "unit": "µM"}, {"measurement": "GI50", "setting": "[28]", "value": 3.8, "unit": "µM"}, {"measurement": "CC50", "setting": "[28]; [32]", "value": 41.7, "unit": "µM"}, {"measurement": "GI50", "setting": "[29]", "value": 0.631, "unit": "µM"}, {"measurement": "GI50", "setting": "[30]; HL-60", "value": 1.55, "unit": "µM"}, {"measurement": "CC50", "setting": "[30]; HL-60, read-out: Log LC50 (the source's name) (converted)", "value": 8.51, "unit": "µM"}, {"measurement": "GI50", "setting": "[31]", "value": 0.603, "unit": "µM"}]}]}
